Test results as given in PMC10692721, “Drug discovery for heart failure targeting myosin-binding protein C” (The Journal of Biological Chemistry, 2023).

Assays:
TMR-cC0-C2 = experiment: Selleck library HTS, 532 nm excitation (FLT of TMR-cC0-C2 in presence of FMAL-actin); format: binding, human; conditions: for 532-nm Δτ, Repeat 1 / 532-nm Δτ, Repeat 2: initial screen, 30 μM compound; for 532-nm z-score (based on avg Δτ): robust z-score, hit threshold ±4, 30 μM compound; for effect on FLT of TMR-cC0-C2 in the initial screen (in words): both replicates, actin present
Procedure: (§1) Fluorescence lifetime (FLT) measurements were acquired using a high-throughput FLT plate reader (Fluorescence Innovations, Inc) ([14], [27]), provided by Photonic Pharma LLC. […] The observed waveforms were analyzed as described previously ([15], [28]).
(§2) In total, 50 nl of each solution was dispensed in DMSO using an automated Echo 550 acoustic liquid dispenser (Labcyte). Compounds were formatted into the assay plates, at a final concentration of 30 μM, with the first two and second to last columns loaded with DMSO only (compound-free controls). In the final column, 30 μM of suramin was loaded as a positive control (tool compound). These assay plates were then heat-sealed using a PlateLoc Thermal Microplate Sealer (Agilent Technologies) and stored at −20 °C. Before screening, compound plates were equilibrated to room temperature (∼25 °C). […] Plates were incubated at room temperature for 60 min before recording the data with the fluorescence lifetime plate reader.
Hits that exceeded the z-score hit criteria in the donor-only screen were excluded from consideration. To remove compounds with confounding fluorescence properties, a similarity index (SI, specifically the cosine distance, Equation 5) was computed using data from the SUPR instrument by comparing a region (500–540 nm) of the donor-only spectrum (I^(a)) for each well to that of the plate-wide average DMSO spectrum (I^(b)) in the same wavelength band ([29]). Compounds that exceeded an SI robust z-score of 4 were deemed likely fluorescent compounds and removed from consideration.(5) SI=1−∑Ii(a).Ii(b)/∑Ii(a).Ii(a)∑Ii(b).Ii(b)

[1] = system: FMAL-actin plus TMR-cC0-C2; experiment: Selleck library HTS, 473 nm excitation (FLT of FMAL-actin with TMR-cC0-C2, FLT-FRET); format: binding, human; conditions: for 473-nm Δτ, Repeat 1 / 473-nm Δτ, Repeat 2: initial screen, 30 μM compound; for 473-nm z-score (based on avg Δτ): robust z-score, hit threshold ±4, 30 μM compound
Procedure: as §1, §2
After fitting the waveforms with a single exponential decay to quantify donor FLT, the change in FLT (Δτ) was computed by performing a moving median subtraction in the order the plate was scanned with a window size of half a plate row […]. The reasons for this are twofold. Firstly, plate gradients are often observed due to the heating of the digitizer during acquisition.
To account for the necessity to correct for plate gradients in the computation of E, the median τDMSO prior to the application of the moving median correction was added to each well’s Δτ value to recover a rescaled value of τ.

[2] = system: TMR-fC1-C2 (C1-C2 of fast skeletal MyBP-C); experiment: FLT-TMR concentration-response assay, fC1-C2; format: binding; conditions: 60 μM compound
Procedure: (§3) Compounds identified as initial hits were further examined to determine the concentration–response curves for seven conditions ([1]): FMAL-actin alone identified actin-binding compounds that alter the FLT of FMAL-actin ([2]).
as §1
(§4) The primary hits were dissolved in DMSO to make a 10 mM stock solution, which was serially diluted in 96-well mother plates. Hits were screened at eight concentrations (0.5–100 μM). […] Compounds (1 μl) were transferred from the mother plates into 384-well plates using a Mosquito HV liquid handler (TTP Labtech Ltd, Hertfordshire, UK). The same procedure of dispensing as for the pilot screening was applied in the concentration-response assays. Concentration dependence of the FLT-FRET (E/EDMSO) or FLT-TMR (Δτ) change data was fit to a Hill equation only under certain conditions to help guide the eye (Fig. 4).

[3] = system: PKA-phosphorylated TMR-cC0-C2 (cC0-C2#P); experiment: FLT-TMR concentration-response assay, PKA-phosphorylated cC0-C2; format: binding, human; conditions: 60 μM compound
Procedure: as §3, §1, §4

[4] = system: TMR-cC0-C2 (C0-C2 fragment of human cMyBP-C); experiment: FLT-TMR concentration-response assay (FLT of TMR on cC0-C2, no actin); format: binding; conditions: for cC0-C2/cC0-C2#P (ratio of FLT changes) / cC0-C2 FLT change (% change from DMSO, FLT of TMR-MyBP-C): 60 μM compound; for effect on FLT of TMR-cC0-C2 (in words): concentration-response, no actin
Procedure: as §3, §1, §4

[5] = system: FMAL-actin/TMR-cC0-C2 interaction; experiment: FLT-FRET concentration-response assay, FMAL-actin plus TMR-cC0-C2; format: binding, human; conditions: unphosphorylated cC0-C2
Procedure: as §3, §1, §4

Row | Structure (SMILES) | 532-nm Δτ, Repeat 1 (TMR-cC0-C2) | 532-nm Δτ, Repeat 2 (TMR-cC0-C2) | 532-nm z-score (based on avg Δτ) (TMR-cC0-C2) | 473-nm Δτ, Repeat 1 [1] | 473-nm Δτ, Repeat 2 [1] | 473-nm z-score (based on avg Δτ) [1] | cC0-C2/fC1-C2 (ratio of FLT changes) [2] | fC1-C2 FLT change (% change from DMSO, FLT of TMR-MyBP-C) [2] | cC0-C2#P FLT change (% change from DMSO, FLT of TMR-MyBP-C) [3] | cC0-C2/cC0-C2#P (ratio of FLT changes) [4] | cC0-C2 FLT change (% change from DMSO, FLT of TMR-MyBP-C) [4] | effect on FLT of TMR-cC0-C2 in the initial screen (in words) (TMR-cC0-C2) | effect on FLT of TMR-cC0-C2 (in words) [4] | effect on FLT-FRET / binding between FMAL-actin and TMR-cC0-C2 (in words) [5]
1 | Cc1cnc(C(=O)N[C@H]2CCCCC/C=C\[C@@H]3C[C@@]3(C(=O)NS(=O)(=O)C3CC3)NC(=O)[C@@H]3C[C@@H](Oc4nc5ccccc5c5ccccc45)CN3C2=O)cn1 [Paritaprevir (ABT-450), Paritaprevir] | 0.220 ns | 0.254 ns | 14.52 | 0.115 ns | 0.058 ns | 4.85 | 2.2 | 11.0% | 20.3% | 1.2 | 23.8% | – | – | –
2 | Cc1nc(-c2ccc(OCC(C)C)c(C#N)c2)sc1C(=O)O [Febuxostat] | 0.129 ns | 0.132 ns | 8.01 | 0.070 ns | 0.043 ns | 3.18 | 0.7 | 14.6% | 12.1% | 0.8 | 9.6% | – | – | –
3 | Oc1cccc2cccnc12 [8-Hydroxyquinoline] | -0.167 ns | -0.285 ns | -13.76 | -0.025 ns | -0.188 ns | -5.91 | – | – | – | – | – | strongly reduced | did not | –
4 | O=C(Nc1ccc(Cl)cc1)Nc1ccc(Cl)c(Cl)c1 [Triclocarban] | 0.374 ns | 0.415 ns | 24.12 | -0.128 ns | -0.042 ns | -4.72 | 0.5 | 22.2% | 18.2% | 0.6 | 11.6% | – | – | –
5 | CCN(CC)CCCC(C)Nc1ccnc2cc(Cl)ccc12 (stereo not shown) [Chloroquine phosphate] | 0.311 ns | 0.320 ns | 19.30 | -0.042 ns | -0.069 ns | -3.07 | – | 1.9% | – | – | 2.5% | – | – | –
6 | Cc1ccc(Nc2c(F)cccc2Cl)c(CC(=O)O)c1 [Lumiracoxib] | -0.054 ns | -0.036 ns | -2.72 | 0.093 ns | 0.064 ns | 4.45 | – | – | – | – | – | – | – | decrease
7 | CCCCNc1ccc(C(=O)OCCOCCOCCOCCOCCOCCOCCOCCOCCOC)cc1 [Benzonatate] | -0.101 ns | -0.124 ns | -6.82 | 0.108 ns | -0.001 ns | 3.05 | – | – | – | – | – | strongly reduced | did not | –
